Reference: ChEMBL document CHEMBL1201862, “PubChem BioAssay data set” (2004)
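In this assay, cells in 96-well plates receive the compound at five concentrations for 48 hours. Endpoints are linearly interpolated between the surrounding concentrations. GI50 is the concentration that inhibits growth by half.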 Calls of active or inactive are those of the source. Rule as the data show it: active = GI50 up to about 1.1 µM and inactive = higher.

Experiments:
Assay in all cases: growth of human tumour cells (NCI), 48 h
[1] = test system: HL-60
[2] = test system: 786-0
[3] = test system: RPMI-8226
[4] = test system: NCI-H460
[5] = test system: OVCAR-5
[6] = test system: OVCAR-4
[7] = test system: KM12
[8] = test system: SK-MEL-5
[9] = test system: SNB-75
[10] = test system: SR
[11] = test system: CCRF-CEM
[12] = test system: HOP-62
[13] = test system: MOLT-4
[14] = test system: SF-539
[15] = test system: BT-549
[16] = test system: Hs-578T
[17] = test system: UO-31
[18] = test system: OVCAR-3
[19] = test system: HCC 2998
[20] = test system: SF-295
[21] = test system: NCI-H23
[22] = test system: CAKI-1
[23] = test system: SN12C
[24] = test system: A549
[25] = test system: M14
[26] = test system: MDA-N
[27] = test system: EKVX
[28] = test system: NCI/ADR-RES
[29] = test system: Malme-3M
[30] = test system: PC-3
[31] = test system: K562
[32] = test system: SK-OV-3
[33] = test system: NCI-H522
[34] = test system: T47D
[35] = test system: OVCAR-8
[36] = test system: U-251
[37] = test system: DU-145
[38] = test system: SK-MEL-2
[39] = test system: LOX IMVI
[40] = test system: SW-620
[41] = test system: IGROV-1
[42] = test system: HCT-15
[43] = test system: HOP-92
[44] = test system: MDA-MB-435
[45] = test system: HCT-116
[46] = test system: TK-10
[47] = test system: RXF 393
[48] = test system: NCI-H226
[49] = test system: HT-29
[50] = test system: SF-268
[51] = test system: MDA-MB-231
[52] = test system: COLO 205
[53] = test system: SK-MEL-28
[54] = test system: SNB-19
[55] = test system: ACHN
[56] = test system: UACC-257
[57] = test system: A498
[58] = test system: UACC-62
[59] = test system: MCF7

Q: With `COC(=O)Nc1nc2cc(Oc3ccc4nc(NC(=O)OC)[nH]c4c3)ccc2[nH]1` as the compound, how does the GI50 [1] read?
A: 0.608 µM (active)

Q: And the GI50 [2]?
A: 0.435 µM (active)

Q: What about the GI50 [3] of the same compound?
A: 0.929 µM (active)

Q: And the GI50 [4]?
A: 1.36 µM (inactive)

Q: What about the GI50 [5] of the same compound?
A: 9.02 µM (inactive)

Q: What about the GI50 [6] of the same compound?
A: 1.77 µM (inactive)

Q: What about the GI50 [7] of the same compound?
A: 0.376 µM (active)

Q: What about the GI50 [8] of the same compound?
A: 0.687 µM (active)

Q: What about the GI50 [9] of the same compound?
A: 0.701 µM (active)

Q: What about the GI50 [10] of the same compound?
A: 0.252 µM (active)

Q: What about the GI50 [11] of the same compound?
A: 0.371 µM (active)

Q: What about the GI50 [12] of the same compound?
A: 1.56 µM (inactive)

Q: And the GI50 [13]?
A: 1 µM (active)

Q: What about the GI50 [14] of the same compound?
A: 0.381 µM (active)

Q: What about the GI50 [15] of the same compound?
A: 7.01 µM (inactive)

Q: What about the GI50 [16] of the same compound?
A: 0.975 µM (active)

Q: And the GI50 [17]?
A: 11.9 µM (inactive)

Q: What about the GI50 [18] of the same compound?
A: 0.149 µM (active)

Q: What about the GI50 [19] of the same compound?
A: 0.984 µM (active)

Q: And the GI50 [20]?
A: 1.58 µM (inactive)

Q: What about the GI50 [21] of the same compound?
A: 1.81 µM (inactive)

Q: What about the GI50 [22] of the same compound?
A: 2.32 µM (inactive)

Q: And the GI50 [23]?
A: 1.78 µM (inactive)

Q: What about the GI50 [24] of the same compound?
A: 2.25 µM (inactive)

Q: What about the GI50 [25] of the same compound?
A: 0.993 µM (active)

Q: And the GI50 [26]?
A: 0.105 µM (active)

Q: And the GI50 [27]?
A: 3.67 µM (inactive)

Q: What about the GI50 [28] of the same compound?
A: 4.33 µM (inactive)

Q: And the GI50 [29]?
A: 0.61 µM (active)

Q: What about the GI50 [30] of the same compound?
A: 0.419 µM (active)

Q: What about the GI50 [31] of the same compound?
A: 0.942 µM (active)

Q: What about the GI50 [32] of the same compound?
A: 1.45 µM (inactive)

Q: What about the GI50 [33] of the same compound?
A: 1.34 µM (inactive)

Q: And the GI50 [34]?
A: 2.59 µM (inactive)

Q: And the GI50 [35]?
A: 1.41 µM (inactive)

Q: What about the GI50 [36] of the same compound?
A: 0.681 µM (active)

Q: And the GI50 [37]?
A: 0.791 µM (active)

Q: What about the GI50 [38] of the same compound?
A: 1.34 µM (inactive)

Q: What about the GI50 [39] of the same compound?
A: 2.01 µM (inactive)

Q: What about the GI50 [40] of the same compound?
A: 0.855 µM (active)

Q: What about the GI50 [41] of the same compound?
A: 1.45 µM (inactive)

Q: What about the GI50 [42] of the same compound?
A: 1.28 µM

Q: And the GI50 [43]?
A: 6.56 µM (inactive)

Q: What about the GI50 [44] of the same compound?
A: 0.115 µM (active)

Q: What about the GI50 [45] of the same compound?
A: 0.438 µM (active)

Q: What about the GI50 [46] of the same compound?
A: 4.78 µM (inactive)

Q: What about the GI50 [47] of the same compound?
A: 0.74 µM (active)

Q: And the GI50 [48]?
A: 0.925 µM (active)

Q: What about the GI50 [49] of the same compound?
A: 1.14 µM (inactive)

Q: What about the GI50 [50] of the same compound?
A: 1.36 µM (inactive)

Q: What about the GI50 [51] of the same compound?
A: 1.68 µM (inactive)

Q: And the GI50 [52]?
A: 0.708 µM (active)

Q: And the GI50 [53]?
A: 0.713 µM (active)

Q: And the GI50 [54]?
A: 1.29 µM (inactive)

Q: For `CS(=O)(=O)Nc1ccc(N2Cc3c[nH]c4ccc5nccc2c5c34)cc1`, which GI50 [1] is on record?
A: 29 µM (inactive)

Q: What about the GI50 [55] of the same compound?
A: 28.6 µM (inactive)

Q: And the GI50 [2]?
A: 14.3 µM (inactive)

Q: What about the GI50 [3] of the same compound?
A: 20.3 µM (inactive)

Q: What about the GI50 [4] of the same compound?
A: 19.4 µM (inactive)

Q: And the GI50 [5]?
A: 22.8 µM (inactive)

Q: What about the GI50 [6] of the same compound?
A: 14 µM (inactive)

Q: And the GI50 [7]?
A: 17.6 µM (inactive)

Q: What about the GI50 [8] of the same compound?
A: 14.7 µM (inactive)

Q: What about the GI50 [11] of the same compound?
A: 7.33 µM (inactive)

Q: What about the GI50 [12] of the same compound?
A: 17.5 µM (inactive)

Q: And the GI50 [13]?
A: 2.72 µM (inactive)

Q: What about the GI50 [15] of the same compound?
A: 21.8 µM (inactive)

Q: What about the GI50 [16] of the same compound?
A: 39.1 µM (inactive)

Q: What about the GI50 [17] of the same compound?
A: > 100 µM (inactive)

Q: What about the GI50 [18] of the same compound?
A: 9.98 µM (inactive)

Q: What about the GI50 [20] of the same compound?
A: 27.7 µM (inactive)

Q: What about the GI50 [21] of the same compound?
A: 24.6 µM (inactive)

Q: And the GI50 [22]?
A: 31.5 µM (inactive)

Q: And the GI50 [23]?
A: 14 µM (inactive)

Q: And the GI50 [24]?
A: 33.4 µM (inactive)

Q: What about the GI50 [25] of the same compound?
A: 15.5 µM (inactive)

Q: And the GI50 [26]?
A: 15.7 µM (inactive)

Q: And the GI50 [27]?
A: 44.7 µM (inactive)

Q: And the GI50 [56]?
A: 14.5 µM (inactive)

Q: And the GI50 [28]?
A: > 100 µM (inactive)

Q: What about the GI50 [29] of the same compound?
A: 4.54 µM (inactive)

Q: And the GI50 [30]?
A: 16.1 µM (inactive)

Q: What about the GI50 [57] of the same compound?
A: 23.2 µM (inactive)

Q: What about the GI50 [58] of the same compound?
A: 16.3 µM (inactive)

Q: What about the GI50 [31] of the same compound?
A: 11.4 µM (inactive)

Q: What about the GI50 [33] of the same compound?
A: 10.3 µM (inactive)

Q: What about the GI50 [34] of the same compound?
A: 3.5 µM (inactive)

Q: And the GI50 [35]?
A: 13.7 µM (inactive)

Q: And the GI50 [36]?
A: 15.4 µM (inactive)

Q: What about the GI50 [37] of the same compound?
A: 18.3 µM (inactive)

Q: And the GI50 [38]?
A: 16.4 µM (inactive)

Q: What about the GI50 [39] of the same compound?
A: 12.2 µM (inactive)

Q: What about the GI50 [40] of the same compound?
A: 15 µM (inactive)

Q: What about the GI50 [41] of the same compound?
A: 22.2 µM (inactive)

Q: And the GI50 [42]?
A: > 100 µM

Q: And the GI50 [43]?
A: 12.9 µM (inactive)

Q: What about the GI50 [44] of the same compound?
A: 15.5 µM (inactive)

Q: What about the GI50 [59] of the same compound?
A: 8.65 µM (inactive)

Q: And the GI50 [45]?
A: 9.14 µM (inactive)

Q: And the GI50 [46]?
A: 23 µM (inactive)

Q: And the GI50 [48]?
A: 15.4 µM (inactive)

Q: What about the GI50 [49] of the same compound?
A: 25.5 µM (inactive)

Q: What about the GI50 [51] of the same compound?
A: 13.6 µM (inactive)

Q: And the GI50 [52]?
A: 11.9 µM (inactive)

Q: What about the GI50 [53] of the same compound?
A: 18.9 µM (inactive)

Q: And the GI50 [54]?
A: 13.1 µM (inactive)

Q: Which results are given for `CC(=O)C1COC(O)C1C` (stereo not given)?
A: GI50 [1]: 12.4 µM (inactive); GI50 [55]: 23.9 µM (inactive); GI50 [2]: 21.3 µM (inactive); GI50 [3]: 19.7 µM (inactive); GI50 [4]: 18.3 µM (inactive); GI50 [5]: 27.2 µM (inactive); GI50 [7]: 13.6 µM (inactive); GI50 [8]: 16 µM (inactive); GI50 [9]: 23.3 µM (inactive); GI50 [10]: 11.5 µM (inactive); GI50 [11]: 13.5 µM (inactive); GI50 [12]: 16.3 µM (inactive); GI50 [13]: 17.9 µM (inactive); GI50 [14]: 17.5 µM (inactive); GI50 [15]: 30 µM (inactive); GI50 [16]: 24.1 µM (inactive); GI50 [17]: 17.7 µM (inactive); GI50 [18]: 19 µM (inactive); GI50 [20]: 26.1 µM (inactive); GI50 [21]: 16.1 µM (inactive); GI50 [22]: 22.8 µM (inactive); GI50 [23]: 20.7 µM (inactive); GI50 [24]: 53.8 µM (inactive); GI50 [25]: 23.9 µM (inactive); GI50 [26]: 21.3 µM (inactive); GI50 [27]: 38 µM (inactive); GI50 [56]: 32.2 µM (inactive); GI50 [28]: 18.5 µM (inactive); GI50 [30]: 20 µM (inactive); GI50 [57]: 56.2 µM (inactive); GI50 [58]: 14 µM (inactive); GI50 [31]: 26.5 µM (inactive); GI50 [32]: 31 µM (inactive); GI50 [34]: 35.2 µM (inactive); GI50 [35]: 19.5 µM (inactive); GI50 [36]: 23.4 µM (inactive); GI50 [37]: 28.3 µM (inactive); GI50 [38]: 15.3 µM (inactive); GI50 [39]: 16.4 µM (inactive); GI50 [40]: 18 µM (inactive); GI50 [41]: 17.2 µM (inactive); GI50 [42]: 18.5 µM; GI50 [43]: 27.2 µM (inactive); GI50 [44]: 16.1 µM (inactive); GI50 [59]: 20.7 µM (inactive); GI50 [45]: 18.4 µM (inactive); GI50 [46]: 28.6 µM (inactive); GI50 [48]: 21.4 µM (inactive); GI50 [49]: 29.4 µM (inactive); GI50 [50]: 17.3 µM (inactive); GI50 [51]: 22.2 µM (inactive); GI50 [52]: 17 µM (inactive); GI50 [53]: 19.5 µM (inactive); GI50 [54]: 31.1 µM (inactive)
